Data from patent US10723764B2, “Anti-microbial peptides and methods of use thereof” (priority 2011, dated 2020).
In brackets after ≈: the same amount, converted by molar mass. Like-named read-outs stand apart in the source and are kept apart here. Where a SMILES comes first, the peptide text is derived from it. [ ]: non-standard residue; d: D form. Phe(4-CF3) = N[C@@H](Cc1ccc(C(F)(F)F)cc1)C(=O)O; Bip = N[C@@H](Cc1ccc(-c2ccccc2)cc1)C(=O)O; 2Nal = N[C@@H](Cc1ccc2ccccc2c1)C(=O)O

Experiments:
A. baumannii B2367-12 = assay type: cell-based, Acinetobacter baumanii
Procedure: (§1) The antibacterial activities of the peptides were determined using the standard broth microdilution method (Mishra et al. (2012) J. Am. Chem. Soc., 134:12426-12429; Wang et al. (2005) Biol. Chem., 280:5803-5811). Briefly, the bacterial culture was treated with a series of peptide solutions, each with two-fold dilution. After overnight incubation at 37° C., the microplate was read on a ChroMate® 4300 Microplate Reader at 630 nm (GMI, Ramsey, Minn.).

[1] = test system: methicillin-resistant Staphylococcus aureus USA300 LAC; conditions: for MIC (μM) SA: S. aureus USA300 LAC, Table 10; for S. aureus USA 300 MIC: Table 8
Procedure: This was done by modifying the standard microdilution antimicrobial assays (Wang, G. (2008) J. Biol. Chem., 283:32637-32643). Specifically, the bacterial wells with a high peptide concentration (e.g. 100 μM) are duplicated (e.g., two for antimicrobial assays and two for protease stability assays). As an illustration, chymotrypsin was applied to the duplicated wells at a peptide:protease molar ratio of 25:1.

E. faecium ATCC51559 = assay type: cell-based, Enterococcus faecium
Procedure: as §1

human erythrocytes = conditions: for HL50 (μM), peptide concentration that causes 50% lysis of human erythrocytes: Table 10; for hemolysis: human, 160 µM
Procedure: (§2) Peptide hemolysis was assayed using an established protocol (Malmsten et al. (2011) PLoS One 6:e16400). In brief, fresh blood, obtained from the UNMC Blood Bank, was washed three times with PBS buffer and made into a 5% solution. To 90 μL of this solution, 10 μL of a peptide solution was added and incubated at 37° C. for one hour. After centrifugation at 13,000 rpm, aliquots of the supernatant were transferred to a fresh 96 well microplate. The absorbance of the solutions was measured at 545 nm to detect the amount of hemoglobin released. The percent lysis was calculated by assuming 100% release when treated with 2% Triton X-100 and no lysis (0%) when treated with PBS buffer. HL50 was the peptide concentration that caused 50% lysis of human erythrocytes. The cell selectivity (CS) indexes were calculated as the ratio of HL50 to the MIC of the peptide against S. aureus USA300.
(§3) The hemolytic effects of the six peptides were also compared on human red blood cells (hRBC) using an established protocol (Malmsten et al. (2011) PLoS One 6:e16400). […] A high TI indicates good cell selectivity.
(§4) Peptide hemolysis was assayed using an established protocol (Menousek et al. (2012) Int. J. Antimicrob. Agents 39:402-406; Malmsten et al. (2011) PLoS One 6:e16400). Briefly, blood cells were washed three times with phosphate-buffered saline (PBS) and were diluted to a 5% solution. Following peptide treatment, incubation at 37° C. for 1 hour and centrifugation at 13,000 rpm, aliquots of the supernatant were transferred to a fresh 96-well microplate. To assess peptide cytotoxicity, the amount of hemoglobin released was measured at 545 nm. Percent lysis was calculated by assuming 100% release when human blood cells were treated with 2% Triton X-100 and 0% release when they were incubated with PBS buffer.

E. cloacae B2366-12 = assay type: cell-based
Procedure: as §1

[2] = test system: Pseudomonas aeruginosa PAO1; assay type: cell-based
Procedure: The bacterial strains used in the study are Bacillus subtilis 168, methicillin-resistant Staphylococcus aureus USA300 LAC (Gram-positive), Escherichia coli K12, and Pseudomonas aeruginosa PAO1 (Gram negative). The antibacterial activities of the peptides were determined using the standard broth microdilution method (Wang et al. (2005) J. Biol. Chem., 280:5803-5811). In brief, the bacterial culture (90 μL) was treated with a series of peptide solutions (10 μL), each with two-fold dilution. After overnight incubation at 37° C., the microplate was read on a ChroMate® 4300 Microplate Reader at 630 nm (GMI, Ramsey, Minn.).
For the initial screen, antimicrobial activities of these peptides against S. aureus and E. coli were evaluated using the standard broth microdilution protocol (Wang, G. (2008) J. Biol. Chem., 283:32637-43). […] Subsequently, the in vitro activity of these six peptides was evaluated against Bacillus subtilis and Pseudomonas aeruginosa (Table 6). […] While maculatin 1.3 is active against two Gram-positive but not two Gram-negative bacterial strains, DASamP1 is species-specific since it active only against S. aureus. The finding that ascaphin-8, […], and piscidin 1 are wide-spectrum AMPs agrees with the literature (Apponyi et al. (2004) Peptides 25:1035-1054; Conlon et al. (2004) Biochem. Biophys. Res. Commun., 320:170-175; Silphaduang et al. (2001) Nature 414:268-269; Souza et al. (2005) J. Immunol., 186:6585-6596). For lycotoxin I, it was previously found to active against Gram-negative E. coli and yeast (Yan et al. (1998) J. Biol. Chem., 273:2059-2066).
as §1

ESKAPE pathogens = assay type: cell-based
Procedure: as §1
A rational design was conducted on the basis of the 3D structure of GF-17d3. […] The noncoherent packing of the GF-17d3 side chains caused a hydrophobic defect in the structure (FIGS. 8C and 8D, arrow), leading to reduced hydrophobicity. Accordingly, it was hypothesized that the antimicrobial activity of this peptide 17F2 (sequence GX1KRLVQRLKDX2LRNLV (SEQ ID NO: 58), Table 9) could be enhanced by filling in the hydrophobic cavity (FIG. 8D, arrow) with a larger hydrophobic side chain. The antimicrobial activities of these peptide analogues were evaluated using the standard microdilution assays (Mishra et al. (2012) J. Am. Chem. Soc., 134:12426-12429), and the minimal inhibitory concentrations (MIC) against a panel of the ESKAPE pathogens are provided in Table 10. […] To compare the two sites, these two substitutions at positions X1 and X2 were swapped to obtain 17Naph-mF. […] In addition, biphenylalanines were incorporated at position X1 alone or at both X1 and X2 of the 17F2 template. […] The killing abilities of these peptides are essentially proportional to their MIC values as well as retention times (a measure of hydrophobicity) on a reverse-phase HPLC column (Mishra et al. (2012) J. Am. Chem. Soc., 134:12426-12429).

Escherichia coli K12 = conditions: Table 8
[3] = human, hemolysis, at 160 μM, human red blood cells
Procedure: as §2, §3, §4

Structure (SMILES)	MIC (μM) AB (A. baumannii B2367-12) [µM]	MIC (μM) SA [1] [µM]	MIC (μM) EF (E. faecium ATCC51559; ATCC51559) [µM]	HL50 (μM), peptide concentration that causes 50% lysis of human erythrocytes (human erythrocytes) [µM]	MIC (μM) EC (E. cloacae B2366-12; E. cloacae B2366-12) [µM]	MIC (μM) PA [2] [µM]	MIC (μM) EC (E. cloacae B2366-12; B2366-12) [µM]	MIC against E. coli, A. baumannii, and E. cloacae (ESKAPE pathogens; E. coli, A. baumannii, and E. cloacae) [µM]	E. coli K12 MIC (Escherichia coli K12) [µM]	S. aureus USA 300 MIC [1] [µM]	hemolysis at 160 µM [3] [%]	hemolysis (human erythrocytes) [%]	MICs against most of the ESKAPE strains (ESKAPE pathogens; most of the ESKAPE strains) [µM]	MIC (μM) EF (E. faecium ATCC51559; E. faecium ATCC51559) [µM]
CC(C)C[C@H](NC(=O)[C@H](CC(N)=O)NC(=O)[C@H](CCCNC(=N)N)NC(=O)[C@@H](CC(C)C)NC(=O)[C@H](Cc1ccc2ccccc2c1)NC(=O)[C@H](CC(=O)O)NC(=O)[C@H](CCCCN)NC(=O)[C@@H](CC(C)C)NC(=O)[C@H](CCCNC(=N)N)NC(=O)[C@H](CCC(N)=O)NC(=O)[C@@H](NC(=O)[C@@H](CC(C)C)NC(=O)[C@H](CCCNC(=N)N)NC(=O)[C@H](CCCCN)NC(=O)[C@H](Cc1ccccc1)NC(=O)CN)C(C)C)C(=O)N[C@H](C(N)=O)C(C)C [17F-Naph, GX1KRLVQRLKDX2LRNLV] (H-GFKR[dL]VQR[dL]KD[2Nal][dL]RNLV-NH2)	3.1 (≈ 6.67 µg/mL)	25 (≈ 53.8 µg/mL)	3.1 (≈ 6.67 µg/mL)	>900	12.5 (≈ 26.9 µg/mL)	12.5 (≈ 26.9 µg/mL)								
CC(C)C[C@H](NC(=O)[C@H](CC(N)=O)NC(=O)[C@H](CCCNC(=N)N)NC(=O)[C@@H](CC(C)C)NC(=O)[C@H](Cc1ccc(C(F)(F)F)cc1)NC(=O)[C@H](CC(=O)O)NC(=O)[C@H](CCCCN)NC(=O)[C@@H](CC(C)C)NC(=O)[C@H](CCCNC(=N)N)NC(=O)[C@H](CCC(N)=O)NC(=O)[C@@H](NC(=O)[C@@H](CC(C)C)NC(=O)[C@H](CCCNC(=N)N)NC(=O)[C@H](CCCCN)NC(=O)[C@H](Cc1ccc2ccccc2c1)NC(=O)CN)C(C)C)C(=O)N[C@H](C(N)=O)C(C)C [17Naph-mF, GX1KRLVQRLKDX2LRNLV] (H-G[2Nal]KR[dL]VQR[dL]KD[Phe(4-CF3)][dL]RNLV-NH2)	3.1 (≈ 6.88 µg/mL)	6.2 (≈ 13.8 µg/mL)	3.1 (≈ 6.88 µg/mL)	950	6.2 to 12.5	6.2 to 12.5								
CC(C)C[C@H](NC(=O)[C@H](CC(N)=O)NC(=O)[C@H](CCCNC(=N)N)NC(=O)[C@@H](CC(C)C)NC(=O)[C@H](Cc1ccc2ccccc2c1)NC(=O)[C@H](CC(=O)O)NC(=O)[C@H](CCCCN)NC(=O)[C@@H](CC(C)C)NC(=O)[C@H](CCCNC(=N)N)NC(=O)[C@H](CCC(N)=O)NC(=O)[C@@H](NC(=O)[C@@H](CC(C)C)NC(=O)[C@H](CCCNC(=N)N)NC(=O)[C@H](CCCCN)NC(=O)[C@H](Cc1ccc(C(F)(F)F)cc1)NC(=O)CN)C(C)C)C(=O)N[C@H](C(N)=O)C(C)C [17mF-Naph, GX1KRLVQRLKDX2LRNLV] (H-G[Phe(4-CF3)]KR[dL]VQR[dL]KD[2Nal][dL]RNLV-NH2)	3.1 (≈ 6.88 µg/mL)	6.2 (≈ 13.8 µg/mL)	3.1 (≈ 6.88 µg/mL)	500		6.2 to 12.5	6.2 (≈ 13.8 µg/mL)							
CC(C)C[C@H](NC(=O)[C@H](CC(N)=O)NC(=O)[C@H](CCCNC(=N)N)NC(=O)[C@@H](CC(C)C)NC(=O)[C@H](Cc1ccccc1)NC(=O)[C@H](CC(=O)O)NC(=O)[C@H](CCCCN)NC(=O)[C@@H](CC(C)C)NC(=O)[C@H](CCCNC(=N)N)NC(=O)[C@H](CCC(N)=O)NC(=O)[C@@H](NC(=O)[C@@H](CC(C)C)NC(=O)[C@H](CCCNC(=N)N)NC(=O)[C@H](CCCCN)NC(=O)[C@H](Cc1ccccc1)NC(=O)CN)C(C)C)C(=O)N[C@H](C(N)=O)C(C)C [A128A, GX1KRLVQRLKDX2LRNLV-amide] (H-GFKR[dL]VQR[dL]KDF[dL]RNLV-NH2)	6.2 to 12.5						25 (≈ 52.5 µg/mL)	6.2 to 25	10	> 160	3 to 5	<3		
CC(C)C[C@H](NC(=O)[C@H](CC(N)=O)NC(=O)[C@H](CCCNC(=N)N)NC(=O)[C@@H](CC(C)C)NC(=O)[C@H](Cc1ccccc1)NC(=O)[C@H](CC(=O)O)NC(=O)[C@H](CCCCN)NC(=O)[C@@H](CC(C)C)NC(=O)[C@H](CCCNC(=N)N)NC(=O)[C@H](CCC(N)=O)NC(=O)[C@@H](NC(=O)[C@@H](CC(C)C)NC(=O)[C@H](CCCNC(=N)N)NC(=O)[C@H](CCCCN)NC(=O)[C@H](Cc1ccc(C(F)(F)F)cc1)NC(=O)CN)C(C)C)C(=O)N[C@H](C(N)=O)C(C)C [B128A, GX1KRLVQRLKDX2LRNLV-amide] (H-G[Phe(4-CF3)]KR[dL]VQR[dL]KDF[dL]RNLV-NH2)	3.1 to 6.2	25 (≈ 54.2 µg/mL)	25 to 50	>900		25 (≈ 54.2 µg/mL)	25 (≈ 54.2 µg/mL)		5	40	3 to 5	<5	25 to 50	
CC(C)C[C@H](NC(=O)[C@H](CC(N)=O)NC(=O)[C@H](CCCNC(=N)N)NC(=O)[C@@H](CC(C)C)NC(=O)[C@H](Cc1ccccc1)NC(=O)[C@H](CC(=O)O)NC(=O)[C@H](CCCCN)NC(=O)[C@@H](CC(C)C)NC(=O)[C@H](CCCNC(=N)N)NC(=O)[C@H](CCC(N)=O)NC(=O)[C@@H](NC(=O)[C@@H](CC(C)C)NC(=O)[C@H](CCCNC(=N)N)NC(=O)[C@H](CCCCN)NC(=O)[C@H](Cc1ccc(-c2ccccc2)cc1)NC(=O)CN)C(C)C)C(=O)N[C@H](C(N)=O)C(C)C [C128A, GX1KRLVQRLKDX2LRNLV-amide] (H-G[Bip]KR[dL]VQR[dL]KDF[dL]RNLV-NH2)	3.1 (≈ 6.75 µg/mL)	12.5 (≈ 27.2 µg/mL)		>900	12.5 (≈ 27.2 µg/mL)	12.5 (≈ 27.2 µg/mL)			5	40	3 to 5	<5		12.5 (≈ 27.2 µg/mL)
